What was measured:
Assay type in all cases: physicochemical
[1] = Sessile drop water contact angle on compressed plates; design: key to Observed sweling: — = not measurable; * = observed; ** = fast swelling; *** = very fast swelling; details: for Δ θ: decrease of water contact angle from 0 s to 30 s; for Observed sweling: during contact angle measurement; for θ at time 0 s (st. deviation) / θ at time 30 s (st. deviation): sessile drop water contact angle, 3 μL drop, flat surface plate, room temperature
Description: The water contact angle on compressed powders of the different polymers used as the first coating layer, trehalose and erythritol was measured with a Kruss sessile drop contact angle meter DSA100 (Krυss, Germany) at room temperature. 200 mg of powder was compressed with a Specac hydraulic press (Kent, England) with a 10 s dwell time at a pressure of 4×10^8 Pa. A circular punch and dye assembly (12 mm diameter) with polished stainless steel round punches were used for compression. At least six repetitions on three different plates of the same polymer or other two excipients were performed to ensure the reproducibility of results. Measurements were performed with 3 μL water drop and video recording (software DSA 1.90.0.14 Krυss, Germany) that enabled the determination of contact angles at time zero and 30 seconds later. Contact angles at these two-time points together with visual observation of surface swelling were taken as relevant parameters for polymers differentiation. In the same manner, trehalose and erythritol were also analyzed.

[2] = Particle size distribution by laser diffraction (dry powder)
Description: The particle size distribution of powder samples (crystals, coated crystals) was determined using a laser diffraction analyzer (Malvern Mastersizer 3000, Worcestershire, United Kingdom) connected to Aero S dry powder dispersion, as this technique enables measurement in the range between 100 nm and 3500 μm. Approximately 2-3 g of sample was put into the dosing device, air pressure was set to 1.2 bar for coated crystals and granulates (for micronized paracetamol the dispersing air pressure was set to 3.0 bar). Measurement was performed automatically when obscuration was in a range between 0.5 and 5%. Background measurements were performed for 10 seconds and the stabilization time delay before initialization (time before measurements after the desired obscuration was achieved) was set to 3 seconds and measurement duration to 5 seconds respectively. The nonspherical measurement mode approximation was used to determine the particle size distribution for paracetamol crystals and coated crystals. A refraction index and absorption rate for paracetamol were set to 1.62 and 0.01 respectively. The distribution results were expressed as three values: d10, where 10% of the particle population lies below the measured value; d50, the median value; and d90, where 90 percent of the population lies below the measured value.

[3] = Dissolution of coated paracetamol crystals in water (taste masking, non-compendial); details: 100 mL purified water, room temperature
Description: A non-compendial test was performed in order to simulate the taste masking efficinecy of polymer coat during drug sipping. Pure paracetamol crystals were used as reference material. 100 mL of purified water was transferred in an Erlenmeyer flask on a magnetic stirrer at room temperature. The test formulation containing 250 mg of paracetamol was suspended in the Erlenmeyer flask and aliquotes of 5.0 mL were withdrawn at intervals of 0.5, 1.0, 1.5, 2.0, 2.5, 3.0 and 5.0 minutes (±15% tolerance limit for time) and replaced with an equal volume of purified water (freshwater, maintained at the same temperature) at each sampling point. Samples were immediately filtered using 0.45 μm RC syringe filters.
Samples were appropriately diluted and analyzed by HPLC. The amount of drug release was calculated from a standard calibration curve, which was prepared on the day of the experiment.

[4] = Example 3, coated crystals 250-500 μm, milled erythritol, final granules from high shear mixer
[5] = laser diffraction, Comparative Example 1 and Example 2

| Compound | Δ θ [1] [°] | Observed sweling [1] | θ at time 0 s (st. deviation) [1] | θ at time 30 s (st. deviation) [1] | d10 [2, 4] [μm] | d50 [2, 4] [μm] | d90 [2, 4] [μm] | d10 [2, 5] [μm] | d50 [2, 5] [μm] | d90 [2, 5] [μm] | dissolution rate in water [3] |
| --- | --- | --- | --- | --- | --- | --- | --- | --- | --- | --- | --- |
| OC[C@@H](O)[C@@H](O)CO [Erythritol, erythritol] | 0 | — | 0 ° | 0 ° | 7 | 46 | 108 |  |  |  |  |
| OC[C@H]1O[C@H](O[C@H]2O[C@H](CO)[C@@H](O)[C@H](O)[C@H]2O)[C@H](O)[C@@H](O)[C@@H]1O [Trehalose, trehalose] | 4.8 | — | 13.4 (1.9) ° | 8.6 (2.0) ° |  |  |  |  |  |  |  |
| CC(=O)Nc1ccc(O)cc1 [Paracetamol—milled, uncoated, paracetamol] |  |  |  |  |  |  |  | 5 | 32 | 152 |  |
| CC(=O)Nc1ccc(O)cc1 [Paracetamol—large crystals, uncoated, paracetamol] |  |  |  |  |  |  |  | 208 | 458 | 772 | dissoves much faster than from coated particles |

Reference: patent US20230072164A1, “GRANULAR PHARMACEUTICAL PRODUCT FOR ORAL ADMINISTRATION FROM A PRE-FILLED STRAW AND METHOD OF MANUFACTURING SUCH PHARMACEUTICAL PRODUCT” (ALTERNO LABS D.O.O., priority 2020, published 2023)
